{
  "source": "patent US7135502B1",
  "about": "“Colchinol derivatives as vascular damaging agents” (priority 1999, dated 2006)",
  "key": {"vasculature": {"system": "vasculature", "conditions": "at maximum tolerated dose; Lancet, 1994, 344, 1267-1271; cited from earlier work"}, "CaNT tumour vasculature": {"system": "CaNT tumour vasculature", "assay": "Activity against tumour vasculature measured by fluorescent dye (Hoechst 33342), tumour functional vascular volume", "type": "in vivo", "conditions": "fluorescent dye method, CaNT tumour-bearing mice, dye 24 hours after drug treatment; for % Decrease in vascular volume: intraperitoneal, dose not given", "procedure": "(b) Activity Against Tumour Vasculature Measured by Fluorescent Dye\nTumour functional vascular volume of CaNT tumour-bearing mice was measured using the fluorescent dye Hoechst 33342 according to the method of Smith et al (Brit. Jnl. Cancer 1988, 57, 247–253). Five animals were used in control and treated group. The fluorescent dye was dissolved in saline at 6.25 mg/ml and injected intravenously at 10 mg/kg 24 hours after intraperitoneal drug treatment. One minute later, animals were killed and tumours excised and frozen; 10 μm sections were cut at 3 different levels and observed under UV illumination using an Olympus microscope equipped with epifluorescence. Blood vessels were identified by their fluorescent outlines and vascular volume was quantified using a point scoring system based on that described by Chalkley, (Jnl. Natl. Cancer Inst., 1943, 4, 47–53). All estimates were based on counting a minimum of 100 fields from sections cut at the 3 different levels."}, "tubulin": {"system": "tubulin", "assay": "Tubulin polymerisation assay", "type": "biochemical", "conditions": "method of O. Boye et al Med. Chem. Res., 1991, 1, 142-150", "source_text": "The ability of the compounds to bind to preparations of mammalian tubulin can be evaluated by a number of methods available in the literature, for example by following temperature initiated tubulin polymerisation by turbidity in the absence and presence of the compound (for example O. Boye et al Med. Chem. Res., 1991, 1, 142–150)."}},
  "note": "pIC50: −log10 of the molar value.",
  "data": [
    {"compound": "CC(=O)O[C@@]12CO[C@@H]1C[C@H](O)[C@@]1(C)C(=O)[C@H](O)C3=C(C)[C@@H](OC(=O)[C@H](O)[C@@H](NC(=O)OC(C)(C)C)c4ccccc4)C[C@@](O)([C@@H](OC(=O)c4ccccc4)[C@H]21)C3(C)C", "note": "[docetaxel]", "values": [
      {"measurement": "vascular-damaging activity when administered at the MTD", "setting": "vasculature", "value": "no vascular-damaging activity"}
    ]},
    {"compound": "COc1cc2c(c(OC)c1OC)-c1ccc(N)cc1C(NC(C)=O)CC2", "note": "(centres unmarked) [N-[3-amino-9,10,11-trimethoxy-6,7-dihydro-5H-dibenzo[a,c]cyclohepten-5-yl]acetamide]", "values": [
      {"measurement": "decrease in perfused vascular volume relative to control", "setting": "CaNT tumour vasculature; 50 mg/kg intraperitoneally", "value": 88, "unit": "%"},
      {"measurement": "pIC50", "setting": "tubulin", "value": 4.24}
    ]},
    {"compound": "COc1cc2c(c(OC)c1OC)-c1ccc(OC(=O)N3CCC(N4CCCCC4)CC3)cc1C(NC(C)=O)CC2", "note": "(centres unmarked) [Example 3, N-[3-(4-(1-piperidinyl)piperidinylcarbonyloxy)-9,10,11-trimethoxy-6,7-dihydro-5H-dibenzo[a,c]cyclohepten-5-yl]acetamide]", "values": [
      {"measurement": "% Decrease in vascular volume", "setting": "CaNT tumour vasculature", "value": 45, "unit": "%"}
    ]},
    {"compound": "COc1cc2c(c(OC)c1OC)-c1ccc(NC(=O)[C@H](C)N)cc1C(NC(C)=O)CC2", "note": "(some centres unmarked) [Example 2, N-[3-(alanylamino)-9,10,11-trimethoxy-6,7-dihydro-5H-dibenzo[a,c]cyclohepten-5-yl]acetamide]", "values": [
      {"measurement": "% Decrease in vascular volume", "setting": "CaNT tumour vasculature", "value": 95, "unit": "%"}
    ]}
  ]
}
